Drawing on patent US20120202787A1, “Novel Heteroaryl Imidazoles And Heteroaryl Triazoles As Gamma-Secretase Modulators” (Pfizer Inc., priority 2009, published 2012), this text covers IC50 for 28 compounds.

A word on the IC50: it is the concentration needed to halve the response being measured.

The structures appear in SMILES notation.

One test has as its system γ-secretase (production of amyloid beta protein Aβ (1-42)). Put plainly: Cell-based γ-secretase assay with ELISA readout (Aβ (1-42) production). Set-up: species or system human WT-APP overexpressing CHO cells. The conditions noted are these: Geometric mean of at least 2 determinations; Table 3; read-out: Aβ 42 IC50 (μM)*. As for the experimental part: Cell-Based γ-Secretase Assay with ELISA Readout
The ability of compounds to modulate production of amyloid beta protein Aβ (1-42) was determined using human WT-APP overexpressing CHO cells. Cells were plated at 22,000 cells/100 μL well in 96 well tissue culture treated, clear plates (Falcon) in DMEM/F12 based medium and incubated for 24 hours at 37° C. Compounds for testing were diluted in 100% DMSO to achieve an eleven points, half log, dose response for IC50 determinations. Compounds were added in fresh medium to achieve 1% final DMSO. Appropriate vehicle and inhibitor controls were added to obtain maximum and minimum inhibition values for the assay before the plates were incubated for about 24 hours at 37° C.
Coating of ELISA assay plates was initiated by addition of 50 μL/well of an in-house Aβ (1-42) specific antibody at (4 μg/mL) in 0.1 M NaHCO3 (pH 9.0) into black 384-well Maxisorp® plates (Nunc) and incubated overnight at 4° C. The capture antibody was then aspirated from the ELISA assay plates and 100 μL/well of Blocking Buffer (Dulbecco's PBS, 1.5% BSA (Sigma A7030)) added. Ambient temperature incubation was allowed to proceed for a minimum of two hours before washing 2×100 μL with Wash Buffer (Dulbecco's PBS, 0.05% Tween 20). Assay Buffer (Dulbecco's PBS, 1.0% BSA (Sigma A7030), 0.05% Tween 20) 20 μL/well was then added.
After incubation overnight at 37° C., 5% CO2, 40 μL (in duplicate) of experimental conditioned media were transferred into wells of the blocked ELISA plates containing the capture antibody, followed by overnight incubation at 4° C. Cell toxicity was measured in the corresponding cells after removal of the media for the Aβ (1-42) assay by a colorimetric cell proliferation assay (CellTiter 96® AQueous One Solution Cell Proliferation Assay, Promega) according to the manufacturer's instructions.
After overnight incubation of the ELISA assay plates at 4° C., unbound Aβ peptides were removed thorough (4×100 μL) washes with Wash Buffer. Europium (Eu) labeled (custom labeled, Perkin Elmer) Aβ (1-16) 6e10 Monoclonal Antibody (Covance #SIG-39320 was added, (50 μL /well Eu-6e10 @ 1:5000, 20 uM EDTA) in Assay Buffer. Incubation at ambient temperature for a minimum of 2 hours was followed by (4×100 μL) washes with Wash Buffer, before 50 μL/well of Delfia Enhancement Solution (Perkin Elmer) was added. Following a one hour ambient temperature incubation, the plates were read on an EnVision plate reader (Perkin Elmer) using standard DELFIA TRF settings. Data analysis including inhibitory IC50 determination was performed using nonlinear regression fit analysis (in-house software) and the appropriate plate mean values for the maximum and minimum inhibition controls.
(In general: An ELISA detects its analyte on a solid surface through an enzyme-linked reagent.)
With `COc1nc(C(=O)NC2COc3ccc(C(F)(F)F)c(F)c32)ccc1-n1cnc(C)c1` (stereo not shown) [Example 54, N-[4-fluoro-5-(trifluoromethyl)-2,3-dihydro-1-benzofuran-3-yl]-6-methoxy-5-(4-methyl-1H-imidazol-1-yl)pyridine-2-carboxamide], the IC50 worked out at 0.411 µM.

As to `COc1nc(C(=O)NC2COc3cc(C)c(Cl)cc32)ccc1-n1cnc(C)c1` (stereo not shown) [Example 50, N-[5-chloro-6-methyl-2,3-dihydro-1-benzofuran-3-yl]-6-methoxy-5-(4-methyl-1H-imidazol-1-yl)pyridine-2-carboxamide], the concentration for half-maximal inhibition (IC50) is 0.2 µM.

Take `COc1nc(C(=O)N2CC(COc3cccc4ccccc34)C2)ccc1-n1cnc(C)c1` [Example 48, 2-methoxy-3-(4-methyl-1H-imidazol-1-yl)-6-({3-[(1-naphthyloxy)methyl]azetidin-1-yl}carbonyl) pyridine]: the IC50 was 0.096 µM.

For `COc1nc(C(=O)N[C@H]2COc3ccc(Cl)cc32)ccc1-n1cnc(C)c1` [Example 53, N-[(3R)-5-chloro-2,3-dihydro-1-benzofuran-3-yl]-6-methoxy-5-(4-methyl-1H-imidazol-1-yl)pyridine-2-carboxamide], the half-inhibitory concentration (IC50) amounted to 0.373 µM.

Consider `COc1nc(C(=O)NC2COc3ccc(Cl)c(F)c32)ccc1-n1cnc(C)c1` (stereo not shown) [Example 49, N-[5-chloro-4-fluoro-2,3-dihydro-1-benzofuran-3-yl]-6-methoxy-5-(4-methyl-1H-imidazol-1-yl)pyridine-2-carboxamide], for which the concentration for half-maximal inhibition (IC50) amounted to 0.194 µM.

Still in this test, the particulars now being: human WT-APP overexpressing CHO cells; Aβ (1-42) ELISA; about 24 hours at 37° C.; free base or salt; read-out: Aβ 42B IC50 (μM) (Geometric Mean of 2-8 Determinations).
For `COc1cc(C(=O)NCC2(c3ccc(F)cc3)CC2)cnc1-n1cnc(C)c1` [Example 45, N-{[1-(4-fluorophenyl)-cyclopropyl]methyl}-5-methoxy-6-(4-methyl-1H-imidazol-1-yl)nicotinamide], the half-inhibitory concentration (IC50) was found to be 2.23 µM.

Take `COc1nc(C(=O)NCc2ccc(F)c(C3CC3)c2)ccc1-n1cnc(C)c1` [Example 42, N-(3-cyclopropyl-4-fluorobenzyl)-6-methoxy-5-(4-methyl-1H-imidazol-1-yl)pyridine-2-carboxamide]: the IC50 came to 0.319 µM.

Consider `COc1nc(C(=O)N2CC[C@@H](Oc3ccccc3C(F)(F)F)C2)ccc1-n1cnc(C)c1` [Example 37, 2-methoxy-3-(4-methyl-1H-imidazol-1-yl)-6-({(3R)-3-[2-(trifluoromethyl)-phenoxy]pyrrolidin-1-yl}carbonyl)pyridine], for which the concentration for half-maximal inhibition (IC50) came to 0.285 µM.

Regarding `COc1nc(C(=O)NCC(C)(C)c2ccc(F)cc2)ccc1-n1cnc(C)c1` [Example 29, N-[2-(4-fluorophenyl)-2-methylpropyl]-6-methoxy-5-(4-methyl-1H-imidazol-1-yl)pyridine-2-carboxamide], the IC50 is 0.502 µM.

For the compound `Cc1cn(-c2ncc(C(=O)NCC3(c4ccc(Cl)cc4)CC3)cc2Cl)cn1` [Example 34, 5-chloro-N-{[1-(4-chlorophenyl)cyclopropyl]methyl}-6-(4-methyl-1H-imidazol-1-yl)nicotinamide], the IC50 worked out at 1.37 µM.

With `COc1nc(C(=O)NCc2ccc(OC(F)(F)F)cc2)cnc1-n1cnc(C)c1` [Example 18, 6-methoxy-5-(4-methyl-1H-imidazol-1-yl)-N-[4-(trifluoromethoxy)benzyl]-pyrazine-2-carboxamide], the 50% inhibitory concentration (IC50) turned out to be 5.43 µM.

`COc1cc(C(=O)N2CC[C@H](Oc3ccccc3C(F)(F)F)C2)ncc1-n1cnc(C)c1` [Example 20, 4-methoxy-5-(4-methyl-1H-imidazol-1-yl)-2-({(3S)-3-[2-(trifluoromethyl)-phenoxy]pyrrolidin-1-yl}carbonyl)pyridine]: the half-inhibitory concentration (IC50) came out at 5.33 µM.

Regarding `COc1nc(C(=O)NCc2ccc(Cl)cc2Cl)ccc1-n1cnc(C)c1` [Example 44, N-(2,4-dichlorobenzyl)-6-methoxy-5-(4-methyl-1H-imidazol-1-yl)pyridine-2-carboxamide], the IC50 was determined as 0.394 µM.

`COc1nc(C(=O)NCC2(c3ccccc3)CCCC2)ccc1-n1cnc(C)c1` [Example 25, 6-methoxy-5-(4-methyl-1H-imidazol-1-yl)-N-[(1-phenylcycloentyl)methyl] pyridine-2-carboxamide]: the IC50 amounted to 0.316 µM.

Turning to `COc1nc(C(=O)NCCc2nc3ccc(Cl)cc3o2)cnc1-n1cnc(C)c1` [Example 12, N-[2-(6-chloro-1,3-benzoxazol-2-yl)ethyl]-6-methoxy-5-(4-methyl-1H-imidazol-1-yl)pyrazine-2-carboxamide], the IC50 is 1.43 µM.

`COc1nc(C(=O)NCC2(c3ccc(F)cc3)CC2)ccc1-n1cnc(C)c1` [Example 5, N-{[1-(4-Fluorophenyl)cyclopropyl]methyl}-6-methoxy-5-(4-methyl-1H-imidazol-1-yl)pyridine-2-carboxamide]: the IC50 is 0.34 µM.

As to `COc1nc(C(=O)NCC2(c3ccc(Cl)cc3)CC2)ccc1-n1cnc(C)c1` [Example 3, N-{[1-(4-Chlorophenyl)cyclopropyl]methyl}-6-methoxy-5-(4-methyl-1H-imidazol-1-yl)pyridine-2-carboxamide], the concentration for half-maximal inhibition (IC50) was found to be 0.186 µM.

With `COc1nc(C(=O)NCC2(c3cccc(C)c3)CCC2)ccc1-n1cnc(C)c1` [Example 27, 6-methoxy-5-(4-methyl-1H-imidazol-1-yl)-N-{[1-(3-methylphenyl)cyclobutyl]-methyl}pyridine-2-carboxamide], the half-inhibitory concentration (IC50) was found to be 0.438 µM.

`COc1nc(C(=O)NC(C)(C)c2ccc(F)cc2)cnc1-n1cnc(C)c1` [Example 17, N-[1-(4-fluorophenyl)-1-methylethyl]-6-methoxy-5-(4-methyl-1H-imidazol-1-yl)pyrazine-2-carboxamide]: the 50% inhibitory concentration (IC50) turned out to be 2.41 µM.

For the compound `COc1cc(C(=O)NCC2(c3ccc(C(F)(F)F)cc3)CCOCC2)ncc1-n1cnc(C)c1` [Example 23, 4-methoxy-5-(4-methyl-1H-imidazol-1-yl)-N-({4-[4-(trifluoromethyl)phenyl]-tetrahydro-2H-pyran-4-yl}methyl)pyridine-2-carboxamide], the IC50 is 17.2 µM.

As for `COc1cc(C(=O)NCCc2c[nH]c3ccc(Cl)cc23)ncc1-n1cnc(C)c1` [Example 24, N-[2-(5-chloro-1H-indol-3-yl)ethyl]-4-methoxy-5-(4-methyl-1H-imidazol-1-yl)pyridine-2-carboxamide], the IC50 is 18 µM.

On to `COc1nc(C(=O)NCC2(c3ccccc3)CCCC2)cnc1-n1cnc(C)c1` [Example 2, 6-Methoxy-5-(4-methyl-1H-imidazol-1-yl)-N-[(1-phenylcyclopentyl)methyl]pyrazine-2-carboxamide], for which the IC50 came to 2.29 µM.

For the compound `COc1nc(C(=O)NCC2CCCC2)ccc1-n1cnc(C)c1` [Example 33, N-(cyclopentylmethyl)-6-methoxy-5-(4-methyl-1H-imidazol-1-yl)pyridine-2-carboxamide], the IC50 stood at 0.726 µM.

For `COc1nc(C(=O)NCC(C)(C)c2ccc(F)cc2)cnc1-n1cnc(C)c1` [Example 13, N-[2-(4-fluorophenyl)-2-methylpropyl]-6-methoxy-5-(4-methyl-1H-imidazol-1-yl)pyrazine-2-carboxamide], the half-maximal inhibitory concentration (IC50) came to 1.36 µM.

As to `COc1nc(C(=O)NC(C)(C)c2ccc(F)cc2)ccc1-n1cnc(C)c1` [Example 32, N-[1-(4-fluorophenyl)-1-methylethyl]-6-methoxy-5-(4-methyl-1H-imidazol-1-yl)pyridine-2-carboxamide], the half-maximal inhibitory concentration (IC50) came out at 2.01 µM.

As for `COc1nc(C(=O)NCc2cccc(C(F)(F)F)c2)cnc1-n1cnc(C)c1` [Example 4, 6-Methoxy-5-(4-methyl-1H-imidazol-1-yl)-N-[3-(trifluoromethyl)benzyl]pyrazine-2-carboxamide], the 50% inhibitory concentration (IC50) was 1.75 µM.

On to `COc1nc(C(=O)NCC2(c3ccc(F)cc3)CC2)cnc1-n1cnc(C)c1` [Example 6, N-{[1-(4-Fluorophenyl)cyclopropyl]methyl}-6-methoxy-5-(4-methyl-1H-imidazol-1-yl)pyrazine-2-carboxamide], for which the IC50 amounted to 1.3 µM.

For the compound `COc1nc(C(=O)NCC2(c3ccc(F)cc3)CCC2)ccc1-n1cnc(C)c1` [Example 28, N-{[1-(4-fluorophenyl)-cyclobutyl]methyl}-6-methoxy-5-(4-methyl-1H-imidazol-1-yl)pyridine-2-carboxamide], the IC50 was 0.314 µM.
